Columns and labels:
Test in all cases: relative viability (nuclei count vs DMSO), 5 days (fraction); higher = more cells survive
CUDC-101 + OSI-027 = compound: C#Cc1cccc(Nc2ncnc3cc(OC)c(OCCCCCCC(=O)NO)cc23)c1 [CUDC-101] + COc1cccc2cc(-c3nc([C@H]4CC[C@H](C(=O)O)CC4)n4ncnc(N)c34)[nH]c12 [OSI-027] (partner 0.5 µM)
How it was run: (§1)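 Five library-drug doses in √10 steps were combined with a fixed anchor-drug dose, or a single drug was given alone, by pin tool to lung cancer cell lines in 1536-well plates the day after seeding. Nuclei were stained and counted after 5 days. Relative viability is the nuclei count in treated wells over that in vehicle wells, taken as the median of duplicate plates.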

CUDC-101 + Phenformin = compound: C#Cc1cccc(Nc2ncnc3cc(OC)c(OCCCCCCC(=O)NO)cc23)c1 [CUDC-101] + N=C(N)NC(=N)NCCc1ccccc1 [Phenformin] (partner 250 µM)
How it was run: as §1

CUDC-101 + Vorinostat = compound: C#Cc1cccc(Nc2ncnc3cc(OC)c(OCCCCCCC(=O)NO)cc23)c1 [CUDC-101] + O=C(CCCCCCC(=O)Nc1ccccc1)NO [Vorinostat] (partner 1 µM)
How it was run: as §1

[1] = compound: C1=CC=C2C(=C1)N=C(S2)C(C#N)C3=NC(=NC=C3)NCCC4=CN=CC=C4 + CC1(C)CCC(c2ccc(Cl)cc2)=C(CN2CCN(c3ccc(C(=O)NS(=O)(=O)c4ccc(N[C@H](CCN5CCOCC5)CSc5ccccc5)c(S(=O)(=O)C(F)(F)F)c4)cc3)CC2)C1 [Navitoclax] (partner 0.5 µM)
How it was run: as §1

Cell Line | relative viability (CUDC-101 + OSI-027; first compound 0.01 µM) | relative viability (CUDC-101 + OSI-027; first compound 0.03162 µM) | relative viability (CUDC-101 + OSI-027; first compound 0.1 µM) | relative viability (CUDC-101 + OSI-027; first compound 0.3162 µM) | relative viability (CUDC-101 + OSI-027; first compound 1 µM) | relative viability (CUDC-101 + Phenformin; first compound 0.01 µM) | relative viability (CUDC-101 + Phenformin; first compound 0.03162 µM) | relative viability (CUDC-101 + Phenformin; first compound 0.1 µM) | relative viability (CUDC-101 + Phenformin; first compound 0.3162 µM) | relative viability (CUDC-101 + Phenformin; first compound 1 µM) | relative viability (CUDC-101 + Vorinostat; first compound 0.01 µM) | relative viability (CUDC-101 + Vorinostat; first compound 0.03162 µM) | relative viability (CUDC-101 + Vorinostat; first compound 0.1 µM) | relative viability (CUDC-101 + Vorinostat; first compound 0.3162 µM) | relative viability (CUDC-101 + Vorinostat; first compound 1 µM) | relative viability ([1]; first compound 0.005 µM) | relative viability ([1]; first compound 0.01581 µM) | relative viability ([1]; first compound 0.05 µM) | relative viability ([1]; first compound 0.1581 µM) | relative viability ([1]; first compound 0.5 µM)
NCI-H2087 | 0.473 | 0.548 | 0.463 | 0.679 | 0.561 | 0.403 | 0.465 | 0.439 | 0.413 | 0.316 | 0.928 | 0.886 | 0.684 | 0.528 | 0.38 | 0.986 | 1.01 | 1.16 | 1 | 0.927
NCI-H2126 | 0.678 | 0.659 | 0.662 | 0.668 | 0.508 | 0.556 | 0.532 | 0.517 | 0.52 | 0.403 | 0.862 | 0.777 | 0.713 | 0.704 | 0.452 | 0.91 | 0.913 | 0.782 | 0.831 | 0.842
NCI-H2170 | 0.697 | 0.765 | 0.605 | 0.686 | 0.619 | 0.407 | 0.377 | 0.459 | 0.439 | 0.375 | 0.809 | 0.821 | 0.77 | 0.859 | 0.549 |  | 0.587 | 0.59 | 0.626 | 0.566
NCI-H2228 | 0.406 | 0.689 | 0.671 | 0.615 | 0.419 | 0.27 | 0.272 | 0.29 | 0.403 | 0.254 | 0.611 | 0.575 | 0.585 | 0.783 | 0.526 | 0.915 | 1.39 | 0.827 | 0.997 | 0.954
NCI-H2347 | 0.313 | 0.38 | 0.402 | 0.469 | 0.25 | 0.446 | 0.299 | 0.308 | 0.512 | 0.371 | 0.741 | 0.583 | 0.631 | 0.415 | 0.46 | 0.727 | 0.891 | 0.834 | 0.827 | 0.735
NCI-H2405 | 0.643 | 0.613 | 0.721 | 0.734 | 0.541 | 0.392 | 0.37 | 0.442 | 0.397 | 0.352 | 1.1 | 1.04 | 0.968 | 0.953 | 0.568 | 0.828 | 0.936 | 0.815 | 0.862 | 0.859
NCI-H3122 | 0.909 | 1.07 | 1.03 | 1.14 | 0.927 | 0.382 | 0.361 | 0.389 | 0.356 | 0.338 | 1.04 | 0.912 | 0.895 | 1.01 | 0.685 | 0.935 | 1.04 | 0.984 | 1.04 | 1.01
PC-3 [JPC-3] | 0.758 | 0.786 | 0.514 | 0.547 | 0.407 | 0.484 | 0.486 | 0.362 | 0.402 | 0.351 | 0.753 | 0.691 | 0.387 | 0.383 | 0.335 | 0.776 | 0.835 | 0.731 | 0.819 | 0.843
PC-14 | 1.02 | 0.813 | 0.378 | 0.571 | 0.0565 | 0.854 | 0.476 | 0.22 | 0.193 | 0.0975 | 0.806 | 0.572 | 0.137 | 0.148 | 0.0543 | 0.808 | 1.13 | 1.09 | 1.09 | 0.851
RERF-LC-KJ | 0.517 | 0.612 | 0.674 | 0.585 | 0.401 | 0.419 | 0.441 | 0.418 | 0.387 | 0.387 | 0.732 | 0.783 | 0.612 | 0.659 | 0.439 | 1.29 | 0.811 | 0.804 | 0.843 | 0.875
SK-LU-1 | 0.356 | 0.332 | 0.431 | 0.402 | 0.325 | 0.497 | 0.441 | 0.576 | 0.593 | 0.493 | 0.784 | 0.884 | 0.843 | 0.829 | 0.567 |  | 0.828 | 0.694 | 1.02 | 1.02
SK-MES-1 | 0.604 | 0.601 | 0.673 | 0.656 | 0.381 | 0.705 | 0.679 | 0.705 | 0.606 | 0.57 | 1.04 | 1.04 | 1.1 | 1.12 | 0.915 | 1.76 | 1.19 | 1.3 | 1.28 | 1.02
SW 1573 | 0.578 | 0.623 | 0.726 | 0.766 | 0.279 | 0.407 | 0.356 | 0.484 | 0.371 | 0.304 | 0.979 | 0.689 | 0.675 | 0.773 | 0.468 | 0.863 | 1.15 |  | 1.03 | 0.828

Source: the supplement of paper PMC10307832
